{"source": "ChEMBL document CHEMBL3044590", "about": "“Nematicidal activity of plant essential oils and components from coriander (Coriandrum sativum), Oriental sweetgum (Liquidambar orientalis), and valerian (Valeriana wallichii) essential oils against pine wood nematode (Bursaphelenchus xylophilus)” (2008)", "format_in_all_cases": "functional", "key": {"[1]": {"system": "Bursaphelenchus xylophilus", "experiment": "Nematicidal activity against Bursaphelenchus xylophilus assessed as nematode mortality at 2 mg/mL measured 24 hr post dose by microscopy"}, "[2]": {"system": "Bursaphelenchus xylophilus", "experiment": "Nematicidal activity against Bursaphelenchus xylophilus assessed as nematode mortality at 0.6 mg/mL measured 24 hr post dose by microscopy"}, "[3]": {"system": "Bursaphelenchus xylophilus", "experiment": "Nematicidal activity against Bursaphelenchus xylophilus assessed as nematode mortality at 0.2 mg/mL measured 24 hr post dose by microscopy"}, "[4]": {"system": "Bursaphelenchus xylophilus", "experiment": "Nematicidal activity against Bursaphelenchus xylophilus assessed as nematode mortality at 0.8 mg/mL measured 24 hr post dose by microscopy"}, "[5]": {"system": "Bursaphelenchus xylophilus", "experiment": "Nematicidal activity against Bursaphelenchus xylophilus assessed as nematode mortality at 1 mg/mL measured 24 hr post dose by microscopy"}, "[6]": {"system": "Bursaphelenchus xylophilus", "experiment": "Nematicidal activity against Bursaphelenchus xylophilus assessed as nematode mortality at 0.4 mg/mL measured 24 hr post dose by microscopy"}}, "data": [{"smiles": "CC(=O)OC/C=C(\\C)CCC=C(C)C", "note": "[GERANYL ACETATE]", "values": [{"measurement": "mortality at 2000 µg/mL", "setting": "[1]", "result": 7, "unit": "%"}]}, {"smiles": "CCCCCCCC=O", "note": "[OCTANAL]", "values": [{"measurement": "mortality at 600 µg/mL", "setting": "[2]", "result": 55.2, "unit": "%"}, {"measurement": "mortality at 200 µg/mL", "setting": "[3]", "result": 3.5, "unit": "%"}, {"measurement": "mortality at 800 µg/mL", "setting": "[4]", "result": 79.3, "unit": "%"}, {"measurement": "mortality at 1000 µg/mL", "setting": "[5]", "result": 89, "unit": "%"}, {"measurement": "mortality at 400 µg/mL", "setting": "[6]", "result": 31.2, "unit": "%"}, {"measurement": "mortality at 2000 µg/mL", "setting": "[1]", "result": 100, "unit": "%"}]}, {"smiles": "CC(O)c1ccccc1", "note": "(stereo not given) [PHENYL ETHANOL]", "values": [{"measurement": "mortality at 2000 µg/mL", "setting": "[1]", "result": 3, "unit": "%"}]}, {"smiles": "CCCCCCCCCCCC=O", "note": "[DODECANAL]", "values": [{"measurement": "mortality at 600 µg/mL", "setting": "[2]", "result": 37.6, "unit": "%"}, {"measurement": "mortality at 200 µg/mL", "setting": "[3]", "result": 11.5, "unit": "%"}, {"measurement": "mortality at 800 µg/mL", "setting": "[4]", "result": 77.8, "unit": "%"}, {"measurement": "mortality at 1000 µg/mL", "setting": "[5]", "result": 86.3, "unit": "%"}, {"measurement": "mortality at 400 µg/mL", "setting": "[6]", "result": 20.8, "unit": "%"}, {"measurement": "mortality at 2000 µg/mL", "setting": "[1]", "result": 100, "unit": "%"}]}, {"smiles": "CCCCCCCCC=O", "note": "[NONANAL]", "values": [{"measurement": "mortality at 600 µg/mL", "setting": "[2]", "result": 59.5, "unit": "%"}, {"measurement": "mortality at 200 µg/mL", "setting": "[3]", "result": 1.1, "unit": "%"}, {"measurement": "mortality at 800 µg/mL", "setting": "[4]", "result": 83.4, "unit": "%"}, {"measurement": "mortality at 1000 µg/mL", "setting": "[5]", "result": 95.8, "unit": "%"}, {"measurement": "mortality at 400 µg/mL", "setting": "[6]", "result": 3.6, "unit": "%"}, {"measurement": "mortality at 2000 µg/mL", "setting": "[1]", "result": 100, "unit": "%"}]}, {"smiles": "C/C=C\\c1cc(OC)c(OC)cc1OC", "note": "[CIS-ASARONE]", "values": [{"measurement": "mortality at 600 µg/mL", "setting": "[2]", "result": 96.2, "unit": "%"}, {"measurement": "mortality at 200 µg/mL", "setting": "[3]", "result": 15.8, "unit": "%"}, {"measurement": "mortality at 800 µg/mL", "setting": "[4]", "result": 100, "unit": "%"}, {"measurement": "mortality at 1000 µg/mL", "setting": "[5]", "result": 100, "unit": "%"}, {"measurement": "mortality at 400 µg/mL", "setting": "[6]", "result": 47.9, "unit": "%"}, {"measurement": "mortality at 2000 µg/mL", "setting": "[1]", "result": 100, "unit": "%"}]}, {"smiles": "OCCCc1ccccc1", "note": "[HYDROCINNAMYL ALCOHOL]", "values": [{"measurement": "mortality at 2000 µg/mL", "setting": "[1]", "result": 17.2, "unit": "%"}]}, {"smiles": "C=Cc1ccccc1", "note": "[STYRENE]", "values": [{"measurement": "mortality at 2000 µg/mL", "setting": "[1]", "result": 6.7, "unit": "%"}]}, {"smiles": "CCCCCCCCCC=O", "note": "[DECANAL]", "values": [{"measurement": "mortality at 600 µg/mL", "setting": "[2]", "result": 34.2, "unit": "%"}, {"measurement": "mortality at 200 µg/mL", "setting": "[3]", "result": 3, "unit": "%"}, {"measurement": "mortality at 800 µg/mL", "setting": "[4]", "result": 97.3, "unit": "%"}, {"measurement": "mortality at 1000 µg/mL", "setting": "[5]", "result": 100, "unit": "%"}, {"measurement": "mortality at 400 µg/mL", "setting": "[6]", "result": 25.1, "unit": "%"}, {"measurement": "mortality at 2000 µg/mL", "setting": "[1]", "result": 100, "unit": "%"}]}, {"smiles": "CCCCCCC/C=C/CO", "values": [{"measurement": "mortality at 600 µg/mL", "setting": "[2]", "result": 100, "unit": "%"}, {"measurement": "mortality at 200 µg/mL", "setting": "[3]", "result": 98, "unit": "%"}, {"measurement": "mortality at 800 µg/mL", "setting": "[4]", "result": 100, "unit": "%"}, {"measurement": "mortality at 1000 µg/mL", "setting": "[5]", "result": 100, "unit": "%"}, {"measurement": "mortality at 400 µg/mL", "setting": "[6]", "result": 100, "unit": "%"}, {"measurement": "mortality at 2000 µg/mL", "setting": "[1]", "result": 100, "unit": "%"}]}, {"smiles": "C/C=C/c1cc(OC)c(OC)cc1OC", "note": "[TRANS-ASARONE]", "values": [{"measurement": "mortality at 2000 µg/mL", "setting": "[1]", "result": 12.1, "unit": "%"}]}, {"smiles": "CC(=O)c1ccccc1", "note": "[ACETOPHENONE]", "values": [{"measurement": "mortality at 2000 µg/mL", "setting": "[1]", "result": 5.3, "unit": "%"}]}, {"smiles": "CCCCCCC=O", "note": "[HEPTANAL]", "values": [{"measurement": "mortality at 2000 µg/mL", "setting": "[1]", "result": 40.8, "unit": "%"}]}, {"smiles": "OCc1ccccc1", "note": "[BENZYL ALCOHOL]", "values": [{"measurement": "mortality at 2000 µg/mL", "setting": "[1]", "result": 3.8, "unit": "%"}]}, {"smiles": "C=C/C(C)=C/CC=C(C)C", "note": "[OCIMENE]", "values": [{"measurement": "mortality at 2000 µg/mL", "setting": "[1]", "result": 16.2, "unit": "%"}]}, {"smiles": "OC/C=C/c1ccccc1", "note": "[CINNAMIC ALCOHOL]", "values": [{"measurement": "mortality at 600 µg/mL", "setting": "[2]", "result": 99.5, "unit": "%"}, {"measurement": "mortality at 200 µg/mL", "setting": "[3]", "result": 11.3, "unit": "%"}, {"measurement": "mortality at 800 µg/mL", "setting": "[4]", "result": 100, "unit": "%"}, {"measurement": "mortality at 1000 µg/mL", "setting": "[5]", "result": 100, "unit": "%"}, {"measurement": "mortality at 400 µg/mL", "setting": "[6]", "result": 57.6, "unit": "%"}, {"measurement": "mortality at 2000 µg/mL", "setting": "[1]", "result": 100, "unit": "%"}]}, {"smiles": "O=Cc1ccccc1", "note": "[BENZALDEHYDE]", "values": [{"measurement": "mortality at 600 µg/mL", "setting": "[2]", "result": 45.6, "unit": "%"}, {"measurement": "mortality at 200 µg/mL", "setting": "[3]", "result": 1.9, "unit": "%"}, {"measurement": "mortality at 800 µg/mL", "setting": "[4]", "result": 77.5, "unit": "%"}, {"measurement": "mortality at 1000 µg/mL", "setting": "[5]", "result": 94.1, "unit": "%"}, {"measurement": "mortality at 400 µg/mL", "setting": "[6]", "result": 7.4, "unit": "%"}, {"measurement": "mortality at 2000 µg/mL", "setting": "[1]", "result": 100, "unit": "%"}]}, {"smiles": "CCCCCCCCC", "note": "[NONANE]", "values": [{"measurement": "mortality at 2000 µg/mL", "setting": "[1]", "result": 1.7, "unit": "%"}]}, {"smiles": "CCCCCCCCCCO", "note": "[DECANOL]", "values": [{"measurement": "mortality at 600 µg/mL", "setting": "[2]", "result": 100, "unit": "%"}, {"measurement": "mortality at 200 µg/mL", "setting": "[3]", "result": 100, "unit": "%"}, {"measurement": "mortality at 800 µg/mL", "setting": "[4]", "result": 100, "unit": "%"}, {"measurement": "mortality at 1000 µg/mL", "setting": "[5]", "result": 100, "unit": "%"}, {"measurement": "mortality at 400 µg/mL", "setting": "[6]", "result": 100, "unit": "%"}, {"measurement": "mortality at 2000 µg/mL", "setting": "[1]", "result": 100, "unit": "%"}]}, {"smiles": "CCCCCCCCCCC=O", "note": "[UNDECANAL]", "values": [{"measurement": "mortality at 600 µg/mL", "setting": "[2]", "result": 64.1, "unit": "%"}, {"measurement": "mortality at 200 µg/mL", "setting": "[3]", "result": 17.8, "unit": "%"}, {"measurement": "mortality at 800 µg/mL", "setting": "[4]", "result": 90.5, "unit": "%"}, {"measurement": "mortality at 1000 µg/mL", "setting": "[5]", "result": 98.7, "unit": "%"}, {"measurement": "mortality at 400 µg/mL", "setting": "[6]", "result": 34.1, "unit": "%"}, {"measurement": "mortality at 2000 µg/mL", "setting": "[1]", "result": 100, "unit": "%"}]}]}
